Legend:
Type in all cases: biochemical
JAK1 = molecular target: T1, JAK1 (Homo sapiens, UniProt P23458); experiment: JAK tyrosine kinase inhibitory activity in the presence of 1 mM ATP (ELISA), JAK1
T1 construct: purchased Carna Biosciences, Inc
Procedure: (§1) 1. Preparation of Test Compound
(§2) The test compound was dissolved in dimethyl sulfoxide (DMSO) to 10 mM and further diluted with DMSO to the concentrations of 1000, 100, 10, 1, 0.1 and 0.01 μM, respectively. For JAK1, these solutions of the test compound at the six concentrations 10 mM, 1000 μM, 100 μM, 10 μM, 1 μM and 0.1 μM were used. For JAK2 and JAK3, these solutions of the test compound at the six concentrations 1000 μM, 100 μM, 10 μM, 1 μM, 0.1 μM and 0.01 μM were used. The test compound solutions were diluted further to 20-fold with an assay buffer to obtain a sample solution. 15 mM Tris-HCl (pH7.5), 0.01 (v/v) % Tween-20 and 1 mM dithiothreitol were used as an assay buffer. DMSO was diluted to 20-fold with the assay buffer and was used as a negative control.
(§3) 2. JAK Tyrosine Kinase Inhibitory Activity in the Presence of 1 mM Atp
(§4) The activity was determined by ELISA method. Each of the sample solutions was added to a streptavidine coated 96-well plate (DELFIA Strip Plate 8×12 well, PerkinElmer) at 10 μL/well (n=2). […] Finally, JAK tyrosine kinase (Carna Biosciences, Inc.), which was previously diluted with the assay buffer to 7.5 nM for JAK1 and 0.75 nM for JAK2 and JAK3, was added to the plate at 20 μL/well, and the plate was incubated at 30° C. for 1 h. The plate was washed four times with buffer (50 mM Tris-HCl (pH 7.5), 150 mM NaCl, 0.02 (v/v) % Tween-20). A blocking buffer (0.1% Bovine Serum Albumin, 50 mM Tris-HCl (pH 7.5), 150 mM NaCl, 0.02 (v/v) % Tween-20) was added to the plate at 150 μL/well and the plate was blocked at 30° C. for 1 h. The blocking buffer was removed, and a horse radish peroxidase-labeled anti-phosphorylated tyrosine antibody (BD Biosciences, Inc.) (diluted to 10000-fold with the blocking buffer) was added to the plate at 100 μL/well, and the plate was incubated at 30° C. for 30 min. The plate was washed with the washing buffer four times, and 3,3′,5,5′-tetramethylbenizidine solution (Nacalai Tesque) was added to the plate at 100 μL/well to develop the color for 10 minutes. To the plate was added 0.1 M sulfuric acid at 100 μL/well to stop the reaction. The absorbance at 450 nm was measured using a microplate reader (BIO-RAD).
(§5) 3. Analysis of the Results

JAK2 = molecular target: T2, JAK2 (Homo sapiens, UniProt O60674); experiment: JAK tyrosine kinase inhibitory activity in the presence of 1 mM ATP (ELISA), JAK2
T2 construct: purchased Carna Biosciences, Inc
T2 sequence (O60674 whole entry): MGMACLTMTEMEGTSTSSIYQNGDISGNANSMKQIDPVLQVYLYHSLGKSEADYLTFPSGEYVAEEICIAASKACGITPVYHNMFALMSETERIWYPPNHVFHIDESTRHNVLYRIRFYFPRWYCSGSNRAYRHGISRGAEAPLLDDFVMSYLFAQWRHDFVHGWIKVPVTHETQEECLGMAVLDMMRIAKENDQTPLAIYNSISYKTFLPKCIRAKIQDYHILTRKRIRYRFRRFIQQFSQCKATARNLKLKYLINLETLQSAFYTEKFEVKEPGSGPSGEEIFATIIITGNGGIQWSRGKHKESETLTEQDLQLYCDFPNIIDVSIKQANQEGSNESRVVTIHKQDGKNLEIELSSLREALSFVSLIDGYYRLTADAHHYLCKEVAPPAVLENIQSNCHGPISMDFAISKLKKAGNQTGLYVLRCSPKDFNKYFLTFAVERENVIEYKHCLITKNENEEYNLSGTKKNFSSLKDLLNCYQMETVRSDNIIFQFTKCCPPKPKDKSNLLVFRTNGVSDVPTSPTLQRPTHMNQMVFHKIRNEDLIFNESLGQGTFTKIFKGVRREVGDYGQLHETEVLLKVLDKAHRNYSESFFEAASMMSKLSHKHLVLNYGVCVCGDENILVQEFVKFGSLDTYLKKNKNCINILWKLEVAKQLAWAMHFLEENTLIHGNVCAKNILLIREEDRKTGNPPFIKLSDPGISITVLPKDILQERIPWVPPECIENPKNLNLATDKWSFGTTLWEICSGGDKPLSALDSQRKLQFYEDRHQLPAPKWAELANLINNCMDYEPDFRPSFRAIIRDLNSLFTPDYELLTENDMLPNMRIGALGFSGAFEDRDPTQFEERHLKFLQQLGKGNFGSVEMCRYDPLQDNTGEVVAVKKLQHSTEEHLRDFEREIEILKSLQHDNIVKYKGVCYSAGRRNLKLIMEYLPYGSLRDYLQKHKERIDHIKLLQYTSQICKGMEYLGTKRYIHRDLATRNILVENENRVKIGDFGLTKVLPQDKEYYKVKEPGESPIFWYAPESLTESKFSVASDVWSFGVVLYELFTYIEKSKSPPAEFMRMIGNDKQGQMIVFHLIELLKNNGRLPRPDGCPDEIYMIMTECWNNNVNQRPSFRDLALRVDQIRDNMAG
Procedure: as §1, §2, §3, §4, §5

JAK3 = molecular target: T3, JAK3 (Homo sapiens, UniProt P52333); experiment: JAK tyrosine kinase inhibitory activity in the presence of 1 mM ATP (ELISA), JAK3
T3 construct: purchased Carna Biosciences, Inc
T3 sequence (P52333 1-1124): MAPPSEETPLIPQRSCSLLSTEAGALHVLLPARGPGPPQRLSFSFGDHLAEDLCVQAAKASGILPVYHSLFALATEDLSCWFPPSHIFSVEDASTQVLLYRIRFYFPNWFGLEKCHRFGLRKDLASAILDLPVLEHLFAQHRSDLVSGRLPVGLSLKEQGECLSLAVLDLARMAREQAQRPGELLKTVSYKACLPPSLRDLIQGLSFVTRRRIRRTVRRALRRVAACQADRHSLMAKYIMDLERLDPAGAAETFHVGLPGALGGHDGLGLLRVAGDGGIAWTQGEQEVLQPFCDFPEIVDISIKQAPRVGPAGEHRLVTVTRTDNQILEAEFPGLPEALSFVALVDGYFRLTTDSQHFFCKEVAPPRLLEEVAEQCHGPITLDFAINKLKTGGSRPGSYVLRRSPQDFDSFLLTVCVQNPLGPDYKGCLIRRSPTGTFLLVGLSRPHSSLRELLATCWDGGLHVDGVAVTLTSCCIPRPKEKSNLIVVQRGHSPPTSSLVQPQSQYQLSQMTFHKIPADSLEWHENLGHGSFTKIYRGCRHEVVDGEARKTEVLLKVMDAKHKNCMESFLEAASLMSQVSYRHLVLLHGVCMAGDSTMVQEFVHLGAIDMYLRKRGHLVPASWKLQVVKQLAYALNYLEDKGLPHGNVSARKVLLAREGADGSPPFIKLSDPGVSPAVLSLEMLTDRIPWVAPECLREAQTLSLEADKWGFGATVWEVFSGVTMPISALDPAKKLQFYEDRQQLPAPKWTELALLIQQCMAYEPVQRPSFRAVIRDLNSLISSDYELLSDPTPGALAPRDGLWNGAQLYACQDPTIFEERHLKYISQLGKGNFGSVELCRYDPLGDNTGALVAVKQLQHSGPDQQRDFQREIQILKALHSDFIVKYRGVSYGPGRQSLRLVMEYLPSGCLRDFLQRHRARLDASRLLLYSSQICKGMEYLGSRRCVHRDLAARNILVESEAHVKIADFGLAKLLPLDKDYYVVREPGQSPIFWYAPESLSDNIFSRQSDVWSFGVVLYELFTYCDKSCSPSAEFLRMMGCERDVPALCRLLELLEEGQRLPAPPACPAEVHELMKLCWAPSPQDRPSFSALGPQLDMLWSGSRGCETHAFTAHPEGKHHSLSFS
Procedure: as §1, §2, §3, §4, §5

T1 sequence (P23458 whole entry): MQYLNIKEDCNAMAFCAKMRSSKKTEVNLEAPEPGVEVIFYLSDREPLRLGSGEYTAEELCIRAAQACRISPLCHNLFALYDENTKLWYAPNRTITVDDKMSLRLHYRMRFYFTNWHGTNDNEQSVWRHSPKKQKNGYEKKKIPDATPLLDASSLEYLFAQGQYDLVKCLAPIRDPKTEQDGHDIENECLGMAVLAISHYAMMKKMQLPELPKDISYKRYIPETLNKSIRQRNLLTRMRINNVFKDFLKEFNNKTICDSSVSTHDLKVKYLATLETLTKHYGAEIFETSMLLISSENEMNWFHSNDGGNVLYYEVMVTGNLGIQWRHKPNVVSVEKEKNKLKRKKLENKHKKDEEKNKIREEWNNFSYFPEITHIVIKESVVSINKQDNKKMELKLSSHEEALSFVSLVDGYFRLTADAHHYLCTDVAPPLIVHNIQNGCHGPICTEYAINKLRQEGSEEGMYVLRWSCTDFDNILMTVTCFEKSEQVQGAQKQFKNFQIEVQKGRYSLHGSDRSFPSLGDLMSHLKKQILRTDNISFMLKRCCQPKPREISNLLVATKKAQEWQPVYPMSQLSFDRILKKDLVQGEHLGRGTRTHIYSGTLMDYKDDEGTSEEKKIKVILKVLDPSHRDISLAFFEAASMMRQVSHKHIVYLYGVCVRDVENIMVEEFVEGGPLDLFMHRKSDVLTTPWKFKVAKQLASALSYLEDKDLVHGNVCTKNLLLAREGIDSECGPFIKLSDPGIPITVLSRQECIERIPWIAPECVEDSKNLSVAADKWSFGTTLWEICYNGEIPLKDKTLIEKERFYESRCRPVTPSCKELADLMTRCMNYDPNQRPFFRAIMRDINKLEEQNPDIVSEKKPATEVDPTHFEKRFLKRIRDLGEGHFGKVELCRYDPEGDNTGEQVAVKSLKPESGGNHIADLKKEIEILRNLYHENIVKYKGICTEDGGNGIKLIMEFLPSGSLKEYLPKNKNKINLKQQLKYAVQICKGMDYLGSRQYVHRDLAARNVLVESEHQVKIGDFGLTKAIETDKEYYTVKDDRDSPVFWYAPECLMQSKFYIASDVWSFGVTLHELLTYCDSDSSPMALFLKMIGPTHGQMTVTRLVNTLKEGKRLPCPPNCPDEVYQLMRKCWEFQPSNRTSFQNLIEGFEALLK

IC50 (JAK1) [nM]	IC50 (JAK2) [nM]	IC50 (JAK3) [nM]	SMILES
98	1800	3100	COCCOC(=O)NC1CCN(C(=O)c2cc(NC(C)(C)C)nc(-c3cnn4ccsc34)n2)CC1 [Example 101]
96	> 10000	> 10000	COC(=O)NC1CCN(C(=O)c2cc(NCC3CCN(S(C)(=O)=O)CC3)nc(-c3cnn4ccsc34)n2)CC1 [Example 175, Methyl 1-[6-([1-(methanesulfonyl)piperidin-4-yl]methylamino)-2-(pyrazolo[5,1-b][1,3]thiazol-7-yl)pyrimidine-4-carbonyl]piperidin 4-ylcarbamate]
640	1400	4200	CN(C)C(=O)NC1CCN(C(=O)c2cc(NCC(C)(C)C)nc(-c3cnn4ccsc34)n2)CC1 [Example 137, 3-[1-({6-[(2,2-Dimethylpropyl)amino]-2-(pyrazolo[5,1-b][1,3]thiazol-7-yl)pyrimidin-4-yl}carbonyl)piperidin-4-yl]-1,1-dimethylurea]
2600	> 10000	> 10000	COC(=O)NC1CCN(C(=O)c2cc(N[C@H]3CCN(C(=O)OC(C)(C)C)C3)nc(-c3cnn4ccsc34)n2)CC1 [Example 147, tert-Butyl (3S)-3-{[6 {(4 [(methoxycarbonyl)amino]piperidin-1-yl}carbonyl)-2-(pyrazolo[5,1-b][1,3]thiazol-7-yl)pyrimidin-4-yl]amino}pyrrolidine-1-carboxylate]
940	> 10000	> 10000	COC(=O)NC1CCN(C(=O)c2cc(N[C@@H]3CCN(C(=O)C4CCC4)C3)nc(-c3cnn4ccsc34)n2)CC1 [Example 206, Methyl 1-[6-[(3R)-1-(cyclobutanecarbonyl)pyrrolidin-3-yl]amino-2-(pyrazolo[5,1-b][1,3]thiazol-7-yl)pyrimidine-4-carbonyl]piperidin-4-ylcarbamate]
850	> 10000	> 10000	COC(=O)NC1CCN(C(=O)c2cc(N[C@@H]3CCN(C(=O)C4CC4)C3)nc(-c3cnn4ccsc34)n2)CC1 [Example 205, Methyl 1-[6-[(3R)-1-(cyclopropanecarbonyl)pyrrolidin-3-yl]amino-2-(pyrazolo[5,1-b][1,3]thiazol-7-yl)pyrimidine-4-carbonyl]piperidin-4-ylcarbamate]
40	1200	1000	COCC(=O)NC1CCN(C(=O)c2cc(N[C@H](C)C(C)(C)C)nc(-c3cnn4ccsc34)n2)CC1 [Example 93, N-(1-{[6-{[(2R)-3,3-Dimethylbutan-2-yl]amino}-2-(pyrazolo[5,1-b][1,3]thiazol-7-yl)pyrimidin-4-yl]carbonyl}piperidin-4-yl)-2-methoxyacetamide]
210	1900	3800	CCC(=O)NC1CCN(C(=O)c2cc(N(C)C(CC)CC)nc(-c3cnn4ccsc34)n2)CC1 [Example 116, N-[1-({6-[Methyl(pentan-3-yl)amino]-2-(pyrazolo[5,1-b][1,3]thiazol-7-yl)pyrimidin-4-yl}carbonyl)piperidin-4-yl]propanamide]
140	3900	5600	COC(=O)NC1CCN(C(=O)c2cc(NC(C)(C)C)nc(-c3cnn4ccsc34)n2)CC1 [Example 59, Methyl (1-{[6-(tert-butylamino)-2-(pyrazolo[5,1-b][1,3]thiazol-7-yl)pyrimidin-4-yl]carbonyl}piperidin-4-yl)carbamate]
600	1300	2800	CCC(CC)Nc1cc(C(=O)N2CCC(NC(=O)COC)CC2)nc(-c2cnn3ccsc23)n1 [Example 106, 2-Methoxy-N-(1-{[6-(pentan-3-ylamino)-2-(pyrazolo[5,1-b][1,3]thiazol-7-yl)pyrimidin-4-yl]carbonyl}piperidin-4-yl)acetamide]
69	1700	1500	O=C(NC1CCN(C(=O)c2cc(N[C@H]3CCC[C@@H]3OC(F)F)nc(-c3cnn4ccsc34)n2)CC1)C1CC1 [Example 14, N-(1-{[6-{[(1S,2S)-2-(Difluoromethoxy)cyclopentyl]amino}-2-(pyrazolo[5,1-b][1,3]thiazol-7-yl)pyrimidin-4-yl]carbonyl}piperidin-4-yl)cyclopropanecarboxamide]
230	9500	1100	C[C@H](Nc1cc(C(=O)N2CCC(NC(=O)C3CCCCC3)CC2)nc(-c2cnn3ccsc23)n1)C1CC1 [Example 167, N-1-[6-[(1S)-1-cyclopropylethyl]amino-2-(pyrazolo[5,1-b][1,3]thiazol-7-yl)pyrimidine-4-carbonyl]piperidin-4-ylcyclohexanecarboxamide]
180	9300	> 10000	COc1ccc([C@@H](C)Nc2cc(C(=O)N3CCC(NC(=O)C4CC4)CC3)nc(-c3cnn4ccsc34)n2)cc1 [Example 52, N-(1-{[6-{[(1R)-1-(4-Methoxyphenyl)ethyl]amino}-2-(pyrazolo[5,1-b][1,3]thiazol-7-yl)pyrimidin-4-yl]carbonyl}piperidin-4-yl)cyclopropanecarboxamide]
78	4400	4600	O=C(NC1CCN(C(=O)c2cc(NC3CC4CCC3C4)nc(-c3cnn4ccsc34)n2)CC1)C1CC1 [Example 176, N-1-[6-[(1R)-bicyclo[2.2.1]heptan-2-yl]amino-2-(pyrazolo[5,1-b][1,3]thiazol-7-yl)pyrimidine-4-carbonyl]piperidin-4-ylcyclopropanecarboxamide]
66	1300	> 10000	CC(Oc1cc(C(=O)N2CCC(NC(=O)C3CC3)CC2)nc(-c2cnn3ccsc23)n1)C(C)(C)C (stereo not drawn) [Example 44, N-[1-({6-[(3,3-Dimethylbutan 2 yl)oxy]-2-(pyrazolo[5,1-b][1,3]thiazol-7-yl)pyrimidin-4-yl}carbonyl)piperidin-4-yl]cyclopropanecarboxamide]
2700	> 10000	> 10000	N#CCC(=O)N1CC[C@H](Nc2cc(C(=O)N3CCC(NC(=O)C4CC4)CC3)nc(-c3cnn4ccsc34)n2)C1 [Example 204, N-1-[6-[(3S)-1-(cyanoacetyl)pyrrolidin-3-yl]amino-2-(pyrazolo[5,1-b][1,3]thiazol-7-yl)pyrimidine-4-carbonyl]piperidin-4-ylcyclopropanecarboxamide]
760	8500	> 10000	CCC(=O)NC1CCN(C(=O)c2cc(NC3(C)CC3)nc(-c3cnn4ccsc34)n2)CC1 [Example 128, N-[1-({6-[(1-Methylcyclopropyl)amino]-2-(pyrazolo[5,1-b][1,3]thiazol-7-yl)pyrimidin-4-yl}carbonyl)piperidin-4-yl]propanamide]
